Reference: article PMC5374710, “Discovery of the first dual GSK3β inhibitor/Nrf2 inducer. A new multitarget therapeutic strategy for Alzheimer’s disease” (Scientific Reports, 2017)
Values joined by “and” are separate entries in the source; they are usually repeats but may differ in a detail not shown here. Equal values may be shown once.

What was measured:
[1] = test system: SH-SY5Y cells; assay: Neuroprotection against okadaic acid (tau hyperphosphorylation), MTT; assay type: cell-based; conditions: 1 μM, 24 h pre-incubation, 18 h co-incubation with OA 20 nM
[2] = molecular target: T1, GSK3β (Homo sapiens, UniProt P49841); assay: GSK3β inhibition, luminescence Kinase-Glo assay; assay type: biochemical; conditions: for IC50: four concentrations 0.1, 1, 10, 30 μM, ATP 1 μM, 1 h; for Ki: calculated from IC50 by Cheng-Prusoff equation, Km ATP 2.345 µM, read-out: Ki (apparent equilibrium dissociation constant)
T1 construct: purchased Promega V1991
T1 sequence (P49841 whole entry): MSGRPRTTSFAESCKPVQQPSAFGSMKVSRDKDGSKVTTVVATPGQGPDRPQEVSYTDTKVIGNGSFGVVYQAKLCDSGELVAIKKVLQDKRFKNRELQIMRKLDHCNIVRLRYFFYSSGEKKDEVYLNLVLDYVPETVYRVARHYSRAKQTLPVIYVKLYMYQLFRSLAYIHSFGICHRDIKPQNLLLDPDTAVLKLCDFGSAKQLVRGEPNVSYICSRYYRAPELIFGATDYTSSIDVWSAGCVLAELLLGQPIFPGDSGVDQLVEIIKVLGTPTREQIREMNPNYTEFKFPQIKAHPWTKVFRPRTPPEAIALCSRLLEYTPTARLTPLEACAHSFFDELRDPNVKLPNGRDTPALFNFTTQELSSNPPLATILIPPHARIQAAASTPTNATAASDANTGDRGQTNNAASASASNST
Protocol: GSK3β inhibitory activity was evaluated using the method developed by Baki[66], with modifications. Compounds were dissolved in assay buffer, containing 40 mM Tris (pH 7.5), 20 mM MgCl2, 0.1 mg/ml BSA (bovine serum albumin) and 50 μM dithiothreitol (DTT) at the desired concentrations. Firstly, 10 μl of enzyme (10 ng) and 10 μl of each compound were mixed for 30 min. Then, 20 μl of a mixture of ATP (1 μM) and GSK3β peptidic substrate were added to each well. The mixture was incubated for 60 min at 30 °C. Thereafter, the remaining ATP concentration was measured with the Kinase-Glo system following instructions from the supplier. Luminescence was measured in an Orion II microplate luminometer (Berthold, Germany) as relative light units (RLU). […] IC50 values were calculated by non-linear regression analysis of individual concentration-response curves using GraphPad Prism 5.0 software (San Diego, CA, USA).
The ability of the compounds to inhibit GSK3β was evaluated using the method developed by Baki^9 with some modifications. The tested compounds were dissolved in assay buffer, containing 40 mM Tris (pH 7.5), 20 mM MgCl2, 0.1 mg/ml BSA (bovine serum albumin) and 50 µM dithiothreitol (DTT), to achieve final reaction concentrations of 0.1, 1, 10 and 30 µM. […] The GSK3β inhibition assay was performed in white 96-well plates, in duplicates. Firstly, 10 µl of enzyme (10 ng) were added to each well, followed by 10 µl of the compounds at the desired concentration. After 30 minutes, 20 µl of a mixture of ATP and GSK3β peptidic substrate were added to each well, achieving a final concentration of 1 µM of ATP and 25 of µM peptidic substrate. The mixture was incubated at 30 °C for 60 minutes. Once the reaction was finished, the remaining ATP concentration was measured by adding 40 µl/well of Kinase-Glo reagent. The luminescence was measured in an Orion II microplate luminometer (Berthold, Germany) as relative light units (RLU). The luminescence recorded is proportional to the amount of ATP present in each well.
Apparent Ki for each compound were calculated from GSK3β Km value for ATP, applying the Cheng-Prusoff equation^10,11 in its simplified form: Ki = IC50/(1+([S]/Km)), in which S refers to the ATP concentration and Km is the Michaelis constant of the substrate for GSK3β.

[3] = test system: primary rat glial cells; assay: ROS production in LPS-stimulated primary glial cultures (H2DCFDA); assay type: cell-based; conditions: Glial cell, 24 h pre-incubation, 18 h co-incubation with LPS, 3 h with fluorescent dye, read-out: IC50 ROS reduction
Description: Therefore, we envisaged the study of compounds 5a–t as potential anti-inflammatory agents. We used primary rat glial cells treated with lipopolysaccharide (LPS) to induce the production of nitrites and ROS as a model of glial activation. Nitrite production is directly proportional to the expression of the iNOS, that is over-expressed when LPS activates glial cells. ROS production is proportional to NOX activation after stimulation with LPS. Results are summarized in Table 2 as IC50s of nitrite production reduction and ROS production reduction. We have included sulforaphane as control in all experiments (see the Supporting Information).
Besides the increase in nitrite production, it is well known that LPS stimulation of microglia also induces the activation of NOX, which induces superoxide free radical production. In fact, this mechanism is synergistic with the expression of iNOS and the production of nitrites. In this respect, there is a body of evidence showing that NOX activation is a major contributor to ROS oxidative stress and neuronal death in AD[57][58]. […] In general, potency to reduce ROS production increased from ortho to para and meta as observed above.
(§1) Primary glial cells were cultured in bottom transparent 96-well black plates following standard protocol. Cells were pre-incubated with the corresponding compound at the selected concentrations, for 24 hours, and therafter, co-incubated with the corresponding compound and LPS (1 μM) during 18 h more. Then, treatments were removed and cells were loaded with the fluorescent probe 2′,7′-dichlorodihydrofluorescein diacetate (H2DCFDA) (10 μM) for 45 minutes in serum free glial culture medium. All experiments included cells treated with culture medium alone (basal). Cells were washed twice with culture medium and fluorescence intensity was recorded in a Fluostar Optima multiwall pate reader (BMG Labtech, Offenburg, Germany) at 485/520 nm as excitation and emission wavelengths respectively, each hour, during 3 hours period. Data were normalized with respect to basal conditions that were considered as 100%.
as §1, with “µM)” for “μM)”, “2',7'-dichlorodihydrofluorescein” for “2′,7′-dichlorodihydrofluorescein”
Mixed glial cultures were obtained from cerebral cortex of 2-5 day-old Sprague-Dawley rats. After removal of blood vessels and meninges, the forebrains were dissociated in DMEM/F12 medium. After mechanical dissociation, cells were plated (3x10^5 cells/ml) in DMEM/F12 medium with 20% fetal bovine serum (FBS) and 1 % penicillin/streptomycin (10,000 units), at 37 °C and in a 5 % CO2-supplemented air atmosphere. After 5 days, medium was substituted by DMEM/F12 medium with 10 % FBS. Cells were cultured for 7-10 days before treatment.

[4] = test system: SH-SY5Y cells; assay: Neuroprotection against rotenone/oligomycin A (R/O), MTT; assay type: cell-based; conditions: 1 μM, 24 h pre-incubation, 24 h co-incubation with rotenone/oligomycin A 30/10 μM
Protocol: Figure 5 Compounds 5a–t exert neuroprotection in in vitro models of AD. […] Then, treatments were removed and cells were co-incubated with each treatment and okadaic acid for 18 h or R/O for 24 h. Cell viability was measured by the MTT reduction assay. Values are expressed as mean ± SEM of five independent experiments in triplicate. ***p < 0.001; **p < 0.01 respect to toxic stimuli treated cells, considered as 0% of protection.
As stated in the Introduction, oxidative stress is considered one of the main causes of neuronal death in AD. Therefore, we were interested in evaluating the potential antioxidant activity of compounds 5a–t in a model of oxidative stress and energy depletion, which in turn increase cell death. For this purpose, we selected the combination of rotenone (30 μM) and oligomycin A (10 μM) (R/O) to induce neurotoxicity as a model system[23][40] to evaluate the potential neuroprotective activity of the compounds. Melatonin, a well-known antioxidant natural compound, was included as a positive control.
(§2) A pre- and co-incubation protocol was followed. Cells were pre-incubated with the corresponding compound at 1 μM in neuroblastoma cells culture medium. After 24 h, medium was removed and replaced with 1% FBS neuroblastoma culture media containing the corresponding compound (1 μM) and the toxic stimuli, the mixture of rotenone and oligomycin A (30 μM/10 μM respectively) or okadaic acid at 20 nM. Cells were co-incubated for further 24 h with the rotenone and oligomycin A solution or 18 h with the okadaic acid solution. Control cells were incubated with the same amount of DMSO without any drug. After the co-incubation period, cell viability was assessed by the MTT-reduction method.
as §2, with “A pre” for “A pre-”, “1 µM” for “1 μM”, “compound at 1 µM” for “compound (1 μM)”, “stimuli, namely a” for “stimuli, the”, “(30 µM / 10 µM” for “(30 μM/10 μM”, “drug. […]” for “drug.”
The percentage of protection was calculated as follows: the percentage of cell survival obtained with the toxic stimuli-treated cells subtracted to 100 was normalized to 100 % of cell death. The percentage of protection was obtained by subtracting the percentage of cell death in presence of the tested compound to 100%.

[5] = molecular target: T2, Nrf2-Keap1 protein-protein interaction (Homo sapiens, UniProt Q14145); assay: Fluorescence polarization assay of Nrf2-Keap1 interaction; assay type: binding; conditions: ligand concentration 10 µM; read-out: FP % Inhibition (± SEM)
T2 construct: a solution of the Keap1 Kelch domain (200 nM)
T2 sequence (Q14145 321-609 limits assumed): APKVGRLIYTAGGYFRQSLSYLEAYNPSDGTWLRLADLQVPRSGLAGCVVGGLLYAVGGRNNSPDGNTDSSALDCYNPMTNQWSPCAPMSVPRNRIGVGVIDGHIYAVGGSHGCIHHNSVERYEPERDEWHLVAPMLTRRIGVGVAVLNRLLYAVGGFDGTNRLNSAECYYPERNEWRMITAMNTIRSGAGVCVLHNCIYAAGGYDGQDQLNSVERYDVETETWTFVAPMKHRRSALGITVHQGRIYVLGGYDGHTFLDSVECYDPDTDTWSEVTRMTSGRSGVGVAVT
Protocol: Data are presented the means ± SEM of two experiments performed in triplicate.
The FP assay was carried out as previously described.^16,17 Inhibitors (10 µM) were plated onto untreated Corning® black 96 well plates containing a solution of the Keap1 Kelch domain (200 nM) and the fluorescent peptide FITC-β-DEETGEF-OH (1 nM) in Dulbecco’s Phosphate Buffered Saline (DPBS) at pH 7.4 (11% final DMSO concentration, 100 µL final volume). Following a 30 min incubation under slow agitation and away from light at room temperature, the plates were transferred to a PHERAstar microplate reader (BMG Labtech, Ortenberg, Germany) and the fluorescence polarisation was recorded. All measurements were recorded in triplicate.

[6] = molecular target: T3, Keap1 Kelch domain (Homo sapiens, UniProt Q14145); assay: Differential scanning fluorimetry assay; assay type: binding; conditions: ligand concentration 10 µM
T3 construct: A solution of the Keap1 Kelch domain protein (5 µM)
T3 sequence (Q14145 321-609 limits assumed): as above
Protocol: A solution of the Keap1 Kelch domain protein (5 µM) and detection dye SYPRO® orange (5X) in DPBS at pH 7.4 was added onto a qPCR plate containing the compound inhibitor (10 µM, 10% final DMSO concentration, 40 µL final volume). The plate was sealed using an optical foil seal and covered with aluminum foil to protect the dye from light. The plate was then transferred to a plate centrifuge and spun down briefly (200 G, 1 min, room temperature) to remove any bubbles and collect the solution at the bottom of the wells. Following a 30 min incubation at room temperature, the plate was placed into a 7500 Real time PCR machine and the fluorescence intensity at an excitation of 465 nm and emission of 580 nm was recorded during a temperature scan from 25 °C to 95 °C with a temperature ramping rate of 1 °C/min. All measurements were run in triplicate. Life Technologies software was used to set up the run on 7500 Software v.2.0.0 and the initial data processing was carried out on Protein thermal shift solution software. The raw data were exported to MS Excel and analysis was performed using a custom script provided by the Structural Genomics Consortium Oxford.^18 The temperature range over which the protein unfolding occurred was selected and the maximum and minimum (at temperatures below the maximum intensity) fluorescence intensities within this range were determined. The processed data were fitted to the Boltzmann equation by non-linear regression using the Origin Pro software.

SMILES	IC50 [2]	IC50 [3]	Ki [2]	inhibition at 10 µM [5]	ΔTm at 10 µM [6]	Percentage of protection against okadaic acid toxicity [1]	Percentage of protection against R/O toxicity [4]
Cc1n[nH]c2c1C(c1ccc(F)cc1)C(C#N)=C(N)O2 (stereo not shown) [Compound 5h, 6-Amino-4-(4-fluorophenyl)-3-methyl-2,4-dihydropyrano[2,3-c]pyrazole-5-carbonitrile]	17.9 ± 1.5 µM	37 ± 4.32 µM	12.5 µM				
Cc1n[nH]c2c1C(c1ccc(Cl)cc1)C(C#N)=C(N)O2 (stereo not shown) [Compound 5k, 6-Amino-4-(4-chlorophenyl)-3-methyl-2,4-dihydropyrano[2,3-c]pyrazole-5-carbonitrile]	6.29 ± 2.6 µM	> 60 µM	4.41 µM				
COc1ccc(C2C(C#N)=C(N)Oc3n[nH]c(C)c32)cc1 (stereo not shown) [Compound 5d, 6-Amino-4-(4-methoxyphenyl)-3-methyl-2,4-dihydropyrano[2,3-c]pyrazole-5-carbonitrile]	6.6 ± 1.7 µM	19.9 ± 4.89 µM	4.63 µM				38.8%
Cc1ccccc1C1C(C#N)=C(N)Oc2[nH]nc(C)c21 (stereo not shown) [Compound 5e, 6-Amino-3-methyl-4-(2-methylphenyl)-2,4-dihydropyrano[2,3-c]pyrazole-5-carbonitrile]	> 30 µM	60 ± 0.29 µM					
Cc1n[nH]c2c1C(c1ccco1)C(C#N)=C(N)O2 (stereo not shown) [Compound 5q, 6-Amino-4-(furan-2-yl)-3-methyl-2,4-dihydropyrano[2,3-c]pyrazole-5-carbonitrile]	14.8 ± 4.8 µM	22.5 ± 7.78 µM	10.4 µM				
Cc1[nH]nc2c1C(c1ccccc1[N+](=O)[O-])C(C#N)=C(N)O2 (stereo not shown) [Compound 5n, 6-Amino-3-methyl-4-(2-nitrophenyl)-2,4-dihydropyrano[2,3-c]pyrazole-5-carbonitrile]	3.9 µM and 3.89 µM	19.9 ± 4.89 µM	2.72 µM			34.7%	
COc1cccc(C2C(C#N)=C(N)Oc3n[nH]c(C)c32)c1 (stereo not shown) [Compound 5c, 6-Amino-4-(3-methoxyphenyl)-3-methyl-2,4-dihydropyrano[2,3-c]pyrazole-5-carbonitrile]	7.2 ± 0.7 µM	18.1 ± 5.36 µM	5.04 µM	< 0%	-0.43 ± 0.49 °C		55.3%
Cc1cccc(C2C(C#N)=C(N)Oc3n[nH]c(C)c32)c1 (stereo not shown) [Compound 5f, 6-Amino-3-methyl-4-(3-methylphenyl)-2,4-dihydropyrano[2,3-c]pyrazole-5-carbonitrile]	21.4 ± 4.6 µM	32.6 ± 6.79 µM	15 µM			over 50%	
Cc1[nH]nc2c1C(c1ccc(Br)cc1)C(C#N)=C(N)O2 (stereo not shown) [Compound 5m, 6-Amino-4-(4-bromophenyl)-3-methyl-2,4-dihydropyrano[2,3-c]pyrazole-5-carbonitrile]	3.77 ± 2 µM	33.2 ± 7.36 µM	2.64 µM	< 0%	-0.14 ± 0.35 °C	over 50%	
Cc1n[nH]c2c1C(c1ccccc1Cl)C(C#N)=C(N)O2 (stereo not shown) [Compound 5i, 6-Amino-4-(2-chlorophenyl)-3-methyl-2,4-dihydropyrano[2,3-c]pyrazole-5-carbonitrile]		> 60 µM					
Cc1[nH]nc2c1C(c1cccc([N+](=O)[O-])c1)C(C#N)=C(N)O2 (stereo not shown) [Compound 5o, 6-Amino-3-methyl-4-(3-nitrophenyl)-2,4-dihydropyrano[2,3-c]pyrazole-5-carbonitrile]	7.2 ± 1.6 µM	30.8 ± 4.99 µM	5.04 µM			48%	
Cc1n[nH]c2c1C(c1ccccc1Br)C(C#N)=C(N)O2 (stereo not shown) [Compound 5l, 6-Amino-4-(2-bromophenyl)-3-methyl-2,4-dihydropyrano[2,3-c]pyrazole-5-carbonitrile]	> 30 µM	38.6 ± 7.16 µM					24.1%
COc1ccccc1C1C(C#N)=C(N)Oc2n[nH]c(C)c21 (stereo not shown) [Compound 5b, 6-Amino-4-(2-methoxyphenyl)-3-methyl-2,4-dihydropyrano[2,3-c]pyrazole-5-carbonitrile]	16.4 ± 1.8 µM	> 60 µM	11.5 µM				39.1%

Second part, led by results:

IC50 [2]	IC50 [3]	Ki [2]	inhibition at 10 µM [5]	ΔTm at 10 µM [6]	SMILES	Percentage of protection against okadaic acid toxicity [1]	Percentage of protection against R/O toxicity [4]
> 30 µM	> 60 µM				Cc1[nH]nc2c1C(c1ccccc1)C(C#N)=C(N)O2 (stereo not shown) [Compound 5a, 6-Amino-3-methyl-4-phenyl-2,4-dihydropyrano[2,3-c]pyrazole-5-carbonitrile]	27.7%	
17.5 ± 1.9 µM	45.1 ± 5.33 µM	12.3 µM			Cc1ccc(C2C(C#N)=C(N)Oc3[nH]nc(C)c32)cc1 (stereo not shown) [Compound 5g, 6-Amino-3-methyl-4-(4-methylphenyl)-2,4-dihydropyrano[2,3-c]pyrazole-5-carbonitrile]		
> 30 µM	> 60 µM				Cc1n[nH]c2c1C(c1cccs1)C(C#N)=C(N)O2 (stereo not shown) [Compound 5r, 6-Amino-3-methyl-4-(thiophen-2-yl)-2,4-dihydropyrano[2,3-c]pyrazole-5-carbonitrile]		
16.3 ± 2.8 µM	> 60 µM	11.4 µM			Cc1[nH]nc2c1C(c1ccc([N+](=O)[O-])cc1)C(C#N)=C(N)O2 (stereo not shown) [Compound 5p, 6-Amino-3-methyl-4-(4-nitrophenyl)-2,4-dihydropyrano[2,3-c]pyrazole-5-carbonitrile]		
> 30 µM	15.2 ± 3.73 µM				Cc1[nH]nc2c1C(c1cccnc1)C(C#N)=C(N)O2 (stereo not shown) [Compound 5s, 6-Amino-3-methyl-4-(pyridin-3-yl)-2,4-dihydropyrano[2,3-c]pyrazole-5-carbonitrile]		57.9%
20.5 ± 8 µM	24 ± 2.58 µM	14.4 µM			Cc1[nH]nc2c1C(c1cccc(Cl)c1)C(C#N)=C(N)O2 (stereo not shown) [Compound 5j, 6-Amino-4-(3-chlorophenyl)-3-methyl-2,4-dihydropyrano[2,3-c]pyrazole-5-carbonitrile]		
